Source: patent EP4653444A1, “FUSED TRICYCLIC COMPOUND AS KINASE INHIBITOR” (Hangzhou Innogate Pharma Co., Ltd., priority 2023, dated 2024)

Molecular target: T1, TNK1 kinase (Homo sapiens, UniProt Q13470)
T1 sequence (Q13470 1-666): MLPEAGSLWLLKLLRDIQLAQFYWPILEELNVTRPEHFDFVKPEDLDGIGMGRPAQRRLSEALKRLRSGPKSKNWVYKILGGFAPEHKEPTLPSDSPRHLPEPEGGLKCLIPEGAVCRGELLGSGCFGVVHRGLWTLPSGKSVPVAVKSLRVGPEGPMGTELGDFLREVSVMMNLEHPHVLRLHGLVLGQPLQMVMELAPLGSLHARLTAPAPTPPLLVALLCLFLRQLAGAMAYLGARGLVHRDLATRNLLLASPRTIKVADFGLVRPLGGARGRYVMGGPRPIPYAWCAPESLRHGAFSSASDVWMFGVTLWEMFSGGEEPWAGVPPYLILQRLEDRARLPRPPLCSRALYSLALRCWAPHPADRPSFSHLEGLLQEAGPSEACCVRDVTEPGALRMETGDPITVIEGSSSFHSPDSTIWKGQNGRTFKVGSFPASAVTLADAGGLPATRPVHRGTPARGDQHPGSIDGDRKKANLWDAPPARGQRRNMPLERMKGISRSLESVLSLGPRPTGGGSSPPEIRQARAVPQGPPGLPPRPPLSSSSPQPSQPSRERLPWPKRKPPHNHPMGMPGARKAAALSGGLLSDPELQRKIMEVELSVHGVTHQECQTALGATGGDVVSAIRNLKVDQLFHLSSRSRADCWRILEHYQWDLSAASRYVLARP
Experiment: TNK1 kinase activity inhibition assay (ADP-Glo)
Format: biochemical
Experimental: Measure compound inhibitory activity against TNK1 kinase using ADP-Glo Assay. 1× kinase reaction buffer was prepared (working concentrations: HEPES 50 mM, MgCl2 10 mM, Brij35 0.01%, EGTA 1 mM, DTT 2 mM). 2× kinase and 4× substrate buffers were prepared with the following working concentrations: For TNK1 kinase: kinase solution at 5 nM; substrate mixture containing ATP at 45 µM and MBP substrate at 0.1 mg/ mL. For ULK2 kinase: kinase solution at 0.15 nM; substrate mixture containing ATP at 6 µM and MBP substrate at 0.1 mg/mL. Compounds were serially diluted in DMSO and shaken on an orbital shaker for 20 minutes. 2× kinase solution was prepared using 1× kinase reaction buffer. 20 nL of compound solution was transferred to a 384-well plate. 2 µL of kinase solution was added to each well of the reaction plate. The plate was sealed with adhesive film, centrifuged at 1000 rpm for 60 seconds, and incubated at 25°C for 10 minutes. 2× ATP&MBP mixture was prepared using 1× kinase reaction buffer. 2 µL of 2× ATP&substrate mixture was added to the reaction plate. The plate was sealed with adhesive film, centrifuged at 1000 rpm for 60 seconds, and incubated at 25°C for 60 minutes. 4 µL of ADP-Glo reagent was transferred to the 384-well reaction plate, centrifuged at 1000 rpm for 1 minute, and incubated at 25°C for 40 minutes. 8 µL of Detection solution was transferred to the 384-well reaction plate, centrifuged at 1000 rpm for 1 minute, and incubated at 25°C for 40 minutes. Relative luminescence units (RLU) were measured using a BMG microplate reader, with signal intensity representing kinase activity level. The inhibition percentage was calculated as follows: % inhibition = 100% - [(Compound RLU - Positive Control RLU)/(Negative Control RLU - Positive Control RLU)] × 100%. The IC50 values (half-maximal inhibitory concentration) of compounds were determined by fitting the data to the following nonlinear regression equation using GraphPad Prism 7.0 software: Y = Bottom + (Top - Bottom)/(1 + 10^((LogIC50 - X) × Hill Slope)), where: X = log(compound concentration), Y = % inhibition. Table1: Inhibitory activity of compounds against ULK (IC50, nM)

CNC(=O)c1ccccc1Nc1cc(Nc2cc3c(cc2OC)N2CCN(C4CCN(C)CC4)C[C@H]2CO3)ncc1C(F)(F)F [Compound D2S]
IC50: < 10 nM
